Data reported in US7087634B2, “Cyclic AMP-specific phosphodiesterase inhibitors” (ICOS Corporation, priority 1999, dated 2006).

Columns and labels:
[1] = Combined mouse locomotor activity assay (sedative / CNS side-effect scoring); format: in vivo; parameters: key: Vehicle control animals were rated a single “+”; animals that were effectively immobilized and stretched out on the bottom of the cage with little detectable movement were rated as “++++.”; conditions: female Balb/c mice, i.p., 10 mg/kg
Description: (§1) The purpose of this study was to determine the efficacy of PDE4 inhibitors in vivo in an LPS mouse model together with a determination with respect to central nervous system (CNS) side-effects manifested by a decrease in spontaneous mobility.
(§2) The test animals were female Balb/c mice, having an average weight of about 20 g. The PDE4 inhibitors, formulated in 30% Cremophor® EL, were administered via intraperitoneal (i.p.) injections at doses of 0.1, 1.0, 10.0, and 100 mg/kg. Individual dose volumes (about 150 μL) were adjusted based on the body weights measured. One hour later, 5 mg/kg LPS in a final volume of 200 μL was injected via the tail vein to each animal. Ninety minutes following the LPS treatment, the animals were bled and serum samples were collected before being stored at −70° C. until assayed.
For side-effect profiling, a subjective visual scoring system was utilized at 5 min and 20 min after administration of PDE4 inhibitors. […] In this instance, the subjects could be monitored continuously over pre-set intervals.
Movement of the X-Y plane, or rearing up on the hind legs, was quantified by counting the number of “light-beam” crosses per unit of time. […] The quantitative scoring correlated well with the subjective measurements described above.

[2] = test system: serum TNFα; experiment: Combined mouse endotoxin-stimulated TNFα release assay (serum TNFα); format: in vivo; conditions: female Balb/c mice, i.p., LPS model
Description: as §1, §2
For efficacy determination, the serum samples were diluted two-fold and TNFα levels were determined using the CYTOSCREEN® Immunoassay Kit (Biosource International). The data were averaged between triplicate sample subjects for each of the tested compounds.

[3] = test system: TNFα release from human peripheral blood lymphocytes; experiment: Lipopolysaccharide-stimulated TNFα release from human peripheral blood lymphocytes; format: cell-based; conditions: preliminary experiments
Description: The compounds of structural formulae (I) and (II) were tested for an ability to reduce TNFα secretions in human peripheral blood lymphocytes. The ability of a compound to reduce TNFα secretion is related to the EC50 value for the compound (i.e., the effective concentration of the compound capable of inhibiting 50% of the total TNFα).
To assess the ability of a compound to reduce TNFα secretion in human peripheral blood lymphocytes (PBL), the following tests were performed.
Heparinized blood (approximately 30 mL) drawn from human volunteers was mixed 1:1 with Dulbecco's modified phosphate-buffered saline. This mixture was mixed 1:1 with HISTOPAQUE® and centrifuged at 1,500 rpm at room temperature without braking in the swinging bucket of a Beckman model TJ6 centrifuge. Erythrocytes were centrifuged to the bottom of the tubes, and serum remained at the surface of the tubes. A layer containing lymphocytes sedimented between the serum and HISTOPAQUE® layers, and was removed by aspiration to a fresh tube. The cells were quantified and adjusted to […] and a 100 μL aliquot is placed into the wells of a 96 well plate. Test compounds and RPMI media (Gibco/BRL Life Sciences) are added to each of the wells 15 minutes prior to addition of bacterial LPS ([…]). The mixture was allowed to incubate for 20 hours at 37° C. in a humidified chamber. The cells then were separated by centrifuging at 800 rpm for 5 minutes at room temperature. An aliquot of 180 μL of supernatant was transferred to a new plate for determination of TNFα concentration. TNFα protein in the cell supernatant fluids was measured using a commercially available enzyme-linked immunosorbent assay (ELISA) (CYTOSCREEN® Immunoassay Kit from Biosource International).
(§3) The cell-based assay provided the following results for various compounds of the present invention. The EC50. values (i.e., effective concentration of the compound capable of inhibiting 50% of the total TNFα) illustrate the ability of the present compounds to inhibit LPS-stimulated TNFα release from human PBL.
as §3, with “various pyrazole” for “various”, “EC50” for “EC50.”, “concentrations” for “concentration”, “peripheral blood lymphocytes.” for “PBL.”

[4] = test system: recombinant human PDE4; conditions: background, reported value; read-out: reported IC50 with respect to recombinant human PDE4; cited from earlier work

SMILES | Sedative Effect [1] | % TNFQ Inhibition ([2]; 1 mg/kg) [%] | % TNFQ Inhibition ([2]; 10 mg/kg) [%] | % TNFQ Inhibition ([2]; 100 mg/kg) [%] | LPS-induced TNFα secretion from human lymphocytes [3] | IC50 [4] [nM]
COC(=O)N1C[C@@H](c2ccc(OC)c(OC3CCCC3)c2)[C@](C)(C(C)=O)C1 (relative stereo) [Comparative Example, trans-3-(3-cyclopentoxy-4-methoxyphenyl)-1-methoxycarbonyl-4-methyi-4-(methylcarbonyi)pyrrolidine] | + | 43 | 100 | 100 |  | 
COc1ccc(C2CNC(=O)C2)cc1OC1CCCC1 (stereo not drawn) [Rolipram, reference compound] |  |  |  |  | inhibit LPS-induced TNFα secretion from human lymphocytes in a dose-dependent fashion | ~200
